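Step 1: Grow cells in 96-well plates. Step 2: Expose to compound for 48 hours at 5 concentrations. Step 3: Interpolate endpoints linearly; if unreached, use highest concentration. Here, GI50 denotes the concentration required for 50% inhibition of growth. The concentration for full growth arrest is given as TGI.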
What was measured:
Experiment in all cases: growth of human tumour cells (NCI), 48 h
[1] = tested on: MCF7 breast
[2] = tested on: SK-OV-3 ovarian
[3] = tested on: OVCAR-5 ovarian
[4] = tested on: CAKI-1 renal
[5] = tested on: NCI-H460 lung
[6] = tested on: SR leukemia
[7] = tested on: ACHN renal
[8] = tested on: PC-3 prostate
[9] = tested on: MDA-MB-435
[10] = tested on: NCI-H522 lung

Row | Compound | GI50 [1] [µM] | TGI [1] [µM] | GI50 [2] [µM] | TGI [2] [µM] | GI50 [3] [µM] | TGI [3] [µM] | GI50 [4] [µM] | TGI [4] [µM] | GI50 [5] [µM] | TGI [5] [µM] | GI50 [6] [µM] | TGI [6] [µM] | GI50 [7] [µM] | TGI [7] [µM] | GI50 [8] [µM] | TGI [8] [µM] | GI50 [9] [µM] | TGI [9] [µM] | TGI [10] [µM] | GI50 [10] [µM]
1 | N#Cc1nc2c(S(=O)(=O)c3ccccc3)c(N)n(Cc3cccnc3)c2nc1C#N | 13.1 | > 100 | 18.8 | 67.5 | > 100 | > 100 | 7.47 | > 100 | > 100 | > 100 | 8.59 | > 100 | 80.7 | > 100 | > 100 | > 100 | > 100 | > 100 | – | –
2 | O=NNc1ccc(S(=O)(=O)c2ccccc2)cn1 | – | > 100 | – | > 100 | – | > 100 | – | > 100 | – | > 100 | – | > 100 | – | > 100 | – | > 100 | – | – | > 100 | –
3 | Cc1ccc(-n2c3c(c4c(CN(C)C)c(O)ccc42)CCc2ccccc2C3=O)cc1 | 19 | 38.8 | > 100 | > 100 | 19.7 | 52.9 | 17.2 | 44.1 | 18.3 | 41.9 | – | – | 16.3 | 36 | 17.5 | 38.4 | 15.2 | 30.4 | 32.7 | 14.9
4 | NC(N)=N/N=C\c1cccc(OCc2ccccc2)c1 | 1.77 | 3.75 | 10.5 | 22.3 | 11.5 | 33.7 | 7.5 | 22.2 | 2.55 | 7.79 | – | – | 4.29 | 18.5 | 11.2 | 25.1 | 1.97 | 4.56 | 11.3 | 2.16
5 | O=c1ccn(C2OC(CO/N=C/c3ccc(O)c(O)c3O)C(O)C2O)c(=O)[nH]1 (configuration not stated) | 18.8 | 37.6 | 27.2 | 89 | > 100 | > 100 | 49.7 | > 100 | > 100 | > 100 | – | – | 31.8 | > 100 | 25.1 | 86.9 | 15.8 | 31.3 | > 100 | 50.6
6 | O=C(CNc1ccc2c(c1)C(=O)c1ccccc1C2=O)Nc1ccc2c(c1)C(=O)c1ccccc1C2=O | 0.809 | 2.6 | 1.82 | 6.99 | 1.84 | 3.4 | 1.5 | 3.03 | 1.28 | 2.88 | – | – | 1.58 | 3.01 | 1.29 | 3.48 | 0.85 | 2.29 | 0.318 | 0.153
7 | COc1ccc(/C=C\c2cc(OC)c(OC)c(OC)c2)cc1OC(=O)c1cccc(Cn2cc(CCOC(=O)[C@H](N)Cc3cn(C)c4ccccc34)nn2)c1 | 0.0123 | 14 | 0.455 | > 100 | 0.0886 | > 100 | < 0.0139 | > 61.3 | < 0.01 | > 42.8 | < 0.01 | 2.66 | < 0.01 | > 60.7 | < 0.01 | > 100 | – | – | 29.4 | < 0.01
8 | O=C1C(Cl)=C(Nc2cccc(Cl)c2)C(=O)N1Cc1ccccc1Cl | 5.18 | 21.2 | – | – | – | – | 1.68 | 10.3 | 11.8 | 27 | 0.26 | 0.645 | 4.36 | 17.1 | 4.8 | 21.3 | 1.01 | 4.09 | 23.3 | 2.87
9 | COc1ccc2c(=O)c3ccoc3n(CC=C(C)C)c2c1 | – | > 100 | – | > 100 | – | > 100 | – | 9.83 | – | > 100 | – | > 100 | – | – | – | > 100 | – | > 100 | > 33.2 | –
10 | COc1c(OC)c(OC)c2c(c1OC)c(=O)c1ccccc1n2C | – | > 100 | – | > 100 | – | > 100 | – | > 100 | – | – | – | > 100 | – | > 100 | – | > 100 | – | > 100 | > 100 | –
11 | O=C1CCCCCCCC/C=C\CC(c2ccco2)O1 (configuration not stated) | 4.81 | > 100 | 32.7 | > 100 | 22.5 | > 100 | 49.4 | > 100 | 76.5 | > 100 | – | – | 23.9 | 82.4 | 36.3 | > 100 | 51.5 | > 100 | 47.2 | 18.1
12 | C=C1C(=O)O[C@H]2[C@H]1CC/C(Cn1cc(-c3cc(C(F)(F)F)cc(C(F)(F)F)c3)nn1)=C\CC[C@@]1(C)O[C@@H]21 | 0.198 | 1.19 | 1.86 | 3.43 | 1.1 | 2.48 | – | – | 1.22 | 2.67 | 0.103 | 0.444 | 0.16 | 0.325 | 0.832 | 2.33 | 0.743 | 2.08 | 0.27 | 0.122

Source: PubChem BioAssay (NCI)
